Experiment [1] addresses T1, GST-ALK5 (TGF-beta receptor kinase) (Homo sapiens, UniProt P36897).
T1 sequence (P36897 34-503): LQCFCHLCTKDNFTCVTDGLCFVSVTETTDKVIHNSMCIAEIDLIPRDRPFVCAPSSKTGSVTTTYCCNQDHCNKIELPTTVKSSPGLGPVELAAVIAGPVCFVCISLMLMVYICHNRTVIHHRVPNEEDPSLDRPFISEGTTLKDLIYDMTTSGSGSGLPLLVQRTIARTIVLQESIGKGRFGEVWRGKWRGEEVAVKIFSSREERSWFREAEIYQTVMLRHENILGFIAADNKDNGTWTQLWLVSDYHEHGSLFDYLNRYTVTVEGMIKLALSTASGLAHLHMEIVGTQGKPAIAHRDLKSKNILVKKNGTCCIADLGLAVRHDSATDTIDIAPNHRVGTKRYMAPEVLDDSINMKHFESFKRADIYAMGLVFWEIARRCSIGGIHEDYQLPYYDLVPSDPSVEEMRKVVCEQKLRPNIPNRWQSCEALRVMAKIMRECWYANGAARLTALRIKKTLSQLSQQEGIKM
Kind of experiment: In-vitro (enzyme) kinase flashplate assay: GST-ALK5 phosphorylation of GST-SMAD2 with 33P-ATP. Format: biochemical. Conditions: 384-well flashplate kinase assay, GST-ALK5 / GST-SMAD2, 33P-ATP, 30° C., 45 min; read-out: TβR activity (Example 50). Here is the method:
In-vitro (Enzyme) Assay for Determination of the Efficacy of Inhibitors of the Inhibition of TGF-Beta-Mediated Effects
The kinase assay was carried out as 384-well flashplate assay. 31.2 nM of GST-ALK5, 439 nM of GST-SMAD2 and 3 mM of ATP (with 0.3 μCi of ^33P-ATP/well) were incubated in a total volume of 35 μl (20 mM of HEPES, 10 mM of MgCl2, 5 mM of MnCl2, 1 mM of DTT, 0.1% of BSA, pH 7.4) without or with test substance (5-10 concentrations) at 30° C. for 45 min. The reaction was stopped using 25 μl of 200 mM EDTA solution, filtered with suction at room temperature after 30 min, and the wells were washed with 3 times 100 μl of 0.9% NaCl solution. Radioactivity was measured in the TopCount. The IC50 values were calculated using RS1.

Experiment [2] deals with TGF-beta-induced phosphorylation of Smad2 (Ser465/467) and Smad3 (Ser423/425) in Mv1-Lu cells. The experiment can be described thus: Inhibition of Smad2/3 phosphorylation in Mv1Lu cells (PathScan Phospho-Smad2 ELISA). In kind it is cell-based, mink Mustela vison. The conditions noted are these: Neogale vison, Mv1-Lu cells, TGF-beta 1 5 ng/ml, Phospho-Smad2/3 ELISA, read-out: TβR activity (Example 51). As to the method: Inhibition of Smad2/3 Phosphorylation in Mv1 Lu Cells by TGF-Beta Receptor I Kinase Inhibitors
This assay was used to determine the inhibitory potency of compounds on TGF-beta-induced phosphorylation of Smad2 (Ser465/467) and Smad3 (Ser423/425). Mv1-Lu cells (lung epithelial cell line from mink Mustela vison; ATCC number: CCL-64) were seeded in DMEM (Invitrogen) supplemented with 10% fetal bovine serum (Pan Biotech) at a defined cell density in 24-well or 96-well plates (24-well plate: 1.5×10^5 cells per well; 96-well plate: 4×10^4 cells per well). Cell cultures were incubated in DMEM at 37° C. and 10% CO2. On the next day, the medium was replaced and cells were serum-starved for 16-20 hours. The following day, serial dilutions of compounds were added to the wells, pre-incubated for 1.5 hrs before recombinant TGF-beta 1 ligand (final concentration 5 ng/ml; R&D systems) was added. After one hour of ligand stimulation, lysates were prepared and analyzed using an enzyme-linked immunosorbent assay kit (PathScan Phospho-Smad2 Kit, Cell Signaling Technologies). The ELISA detects phosphorylated Smad2 as well as phosphorylated Smad3 with the phospho-specific antibody. TGF-beta stimulated cells and unstimulated cells served as positive and negative controls (100% and background control). The concentration of the vehicle DMSO was kept constant at 0.2% (v/v) in all wells. Dose-response relationships were fitted using curve fitting algorithms of the RS1 statistics software package (Brooks Automation Inc. RS/1- Statistical Tools Handbook. Release 6.2) to determine the concentration at which half-maximal inhibition (IC50) of Smad2/3 phosphorylation was achieved.

Drawing on US8791113B2, “2,4-diaryl-substituted [1,8] naphthyridines as kinase inhibitors for use against cancer” (Merck Patent GmbH, priority 2010, dated 2014), this text covers IC50 for 24 molecules.

SMILES strings stand for the structures.

Take `Fc1ccccc1-c1cc(-c2nccc3cnccc23)c2cccnc2n1` [Compound 23, 2-(2-Fluoro-phenyl)-4-[2,6]naphthyridin-1-yl-[1,8]naphthyridine]: the IC50 in experiment [1] and in experiment [2] was 1000 to 10000 nM in each case.
As for `Fc1ccc(Cl)cc1-c1cc(-c2ncnc3cnccc23)c2cccnc2n1` [Compound 24, 4-[2-(5-Chloro-2-fluoro-phenyl)-[1,8]naphthyridin-4-yl]-pyrido[3,4-d]pyrimidine], the results for the IC50 in experiment [1] and in experiment [2] were less than 1000 nM and 1000 to 10000 nM, respectively.
In the case of `Fc1ccccc1-c1cc(-c2ccc(OCCN3CCOCC3)c3cnccc23)c2cccnc2n1` [Compound 25, 2-(2-fluoro-phenyl)-4-[8-(2-morpholin-4-yl-ethoxy)-isoquinolin-5-yl]-[1,8]naphthyridine], the IC50 in experiment [1] and in experiment [2] was less than 1000 nM each time.
In the case of `COc1nnc(-c2cc(-c3ccccc3F)nc3ncccc23)c2ccncc12` [Compound 32, 1-[2-(2-Fluoro-phenyl)-[1,8]naphthyridin-4-yl]-4-methoxy-pyrido[3,4-d]pyridazine], the IC50 in experiment [1] was less than 1000 nM; in experiment [2], greater than 10000 nM.
In the case of `Fc1ccc(Cl)cc1-c1cc(-c2nccc3cnccc23)c2cccnc2n1` [Compound 35, 2-(5-Chloro-2-fluoro-phenyl)-4-[2,6]naphthyridin-1-yl-[1,8]naphthyridine], the IC50 in experiment [1] and in experiment [2] was less than 1000 nM in each case.
With `Fc1ccc(Cl)cc1-c1cc(-c2cncc3ncccc23)c2cccnc2n1` [Compound 37, 5-[2-(5-Chloro-2-fluoro-phenyl)-[1,8]naphthyridin-4-yl]-[1,7]naphthyridine], the values for the IC50 in experiment [1] and in experiment [2] were less than 1000 nM and 1000 to 10000 nM, respectively.
On the same counts, the results for `Nc1ccc(-c2cc(-c3cc(F)ccc3F)nc3ncccc23)c2ccncc12` [Compound 38, 5-[2-(2,5-Difluoro-phenyl)-[1,8]naphthyridin-4-yl]-isoquinolin-8-ylamine] are less than 1000 nM and less than 1000 nM.
The like results for `COc1nccc2c(-c3cc(-c4ccccc4F)nc4ncccc34)nccc12` [Compound 40, 2-(2-Fluoro-phenyl)-4-(5-methoxy-[2,6]naphthyridin-1-yl)-[1,8]naphthyridine] were, in that order, greater than 10000 nM and greater than 10000 nM.
The like results for `Nc1ccc2cnccc2c1-c1cc(-c2ccccc2F)nc2ncccc12` [Compound 62, 5-[2-(2-Fluoro-phenyl)-[1,8]naphthyridin-4-yl]-isoquinolin-6-ylamine] were, in that order, less than 1000 nM and 1000 to 10000 nM.
For the molecule `Cn1cc(-c2ccc(-c3cc(-c4ccccc4F)nc4ncccc34)c3cnccc23)cn1` [Compound 64, 2-(2-Fluoro-phenyl)-4-[5-(1-methyl-1H-pyrazol-4-yl)-isoquinolin-8-yl]-[1,8]naphthyridine], the values for the IC50 in experiment [1] and in experiment [2] were 1000 to 10000 nM and less than 1000 nM, respectively.
`Cn1cc(-c2ccc(-c3cc(-c4ccccc4F)nc4ncccc34)c3ccncc23)cn1` [Compound 65, 2-(2-Fluoro-phenyl)-4-[8-(1-methyl-1H-pyrazol-4-yl)-isoquinolin-5-yl]-[1,8]naphthyridine]: the IC50 in experiment [1] and in experiment [2] was less than 1000 nM each time.
Turning to `Nc1cc2cnccc2c(-c2cc(-c3ccccc3F)nc3ncccc23)n1` [Compound 66, 1-[2-(2-Fluoro-phenyl)-[1,8]naphthyridin-4-yl]-[2,6]naphthyridin-3-ylamine], the IC50 in experiment [1] and in experiment [2] was less than 1000 nM throughout.
With `O=c1c2cnccc2c(-c2cc(-c3ccccc3F)nc3ncccc23)cn1CCO` [Compound 67, 4-[2-(2-Fluoro-phenyl)-[1,8]naphthyridin-4-yl]-2-(2-hydroxy-ethyl)-2H-[2,7]naphthyridin-1-one], the figures for the IC50 in experiment [1] and in experiment [2] were less than 1000 nM and 1000 to 10000 nM, respectively.
The like results for `O=c1c2cnccc2c(-c2cc(-c3cc(Cl)ccc3F)nc3ncccc23)cn1CCO` [Compound 68, 4-[2-(5-Chloro-2-fluoro-phenyl)-[1,8]naphthyridin-4-yl]-2-(2-hydroxy-ethyl)-2H-[2,7]naphthyridin-1-one] were, in that order, less than 1000 nM and less than 1000 nM.
The like results for `COc1ccc2cnccc2c1-c1cc(-c2ccccc2F)nc2ncccc12` [Compound 70, 2-(2-Fluoro-phenyl)-4-(6-methoxy-isoquinolin-5-yl)-[1,8]naphthyridine] were, in that order, less than 1000 nM and less than 1000 nM.
With `CN(C)CC(=O)Nc1nccc2c(-c3cc(-c4ccccc4F)nc4ncccc34)nccc12` [Compound 71, 2-Dimethylamino-N-{5-[2-(2-fluoro-phenyl)-[1,8]naphthyridin-4-yl]-[2,6]naphthyridin-1-yl}-acetamide], the IC50 in experiment [1] and in experiment [2] was 1000 to 10000 nM each time.
Consider `O=c1c2cnccc2c(-c2cc(-c3cc(F)ccc3F)nc3ncccc23)cn1CCO` [Compound 72, 4-[2-(2,5-Difluoro-phenyl)-[1,8]naphthyridin-4-yl]-2-(2-hydroxy-ethyl)-2H-[2,7]naphthyridin-1-one], for which the IC50 in experiment [1] and in experiment [2] was less than 1000 nM throughout.
With `COCC(=O)Nc1nccc2c(-c3cc(-c4ccccc4F)nc4ncccc34)nccc12` [Compound 73, N-{5-[2-(2-Fluoro-phenyl)-[1,8]naphthyridin-4-yl]-[2,6]naphthyridin-1-yl}-2-methoxy-acetamide], the IC50 in experiment [1] and in experiment [2] was 1000 to 10000 nM each time.
On to `Cn1cc(-c2cc(-c3cc(Cl)ccc3F)nc3ncccc23)c2ccncc2c1=O` [Compound 74, 4-[2-(5-Chloro-2-fluoro-phenyl)-[1,8]naphthyridin-4-yl]-2-methyl-2H-[2,7]naphthyridin-1-one], for which the IC50 in experiment [1] and in experiment [2] was less than 1000 nM in each case.
Turning to `O=c1c2cnccc2c(-c2cc(-c3cc(Cl)ccc3F)nc3ncccc23)cn1CCCO` [Compound 75, 4-[2-(5-Chloro-2-fluoro-phenyl)-[1,8]naphthyridin-4-yl]-2-(3-hydroxy-propyl)-2H-[2,7]naphthyridin-1-one], the IC50 in experiment [1] and in experiment [2] was less than 1000 nM each time.
Take `O=c1c2cnccc2c(-c2cc(-c3cc(Cl)ccc3F)nc3ncccc23)cn1CCN1CCOCC1` [Compound 76, 4-[2-(5-Chloro-2-fluoro-phenyl)-[1,8]naphthyridin-4-yl]-2-(2-morpholin-4-yl-ethyl)-2H-[2,7]naphthyridin-1-one]: the IC50 in experiment [1] and in experiment [2] was 1000 to 10000 nM throughout.
Consider `Fc1ccc(Cl)cc1-c1cc(-c2cnc(OCCN3CCOCC3)c3cnccc23)c2cccnc2n1` [Compound 77, 2-(5-Chloro-2-fluoro-phenyl)-4-[1-(2-morpholin-4-yl-ethoxy)-[2,7]naphthyridin-4-yl]-[1,8]naphthyridine], for which the IC50 in experiment [1] and in experiment [2] was less than 1000 nM throughout.
`Fc1ccccc1-c1cc(-c2cnc(OCCN3CCOCC3)c3cnccc23)c2cccnc2n1` [Compound 78, 2-(2-Fluoro-phenyl)-4-[1-(2-morpholin-4-yl-ethoxy)-[2,7]naphthyridin-4-yl]-[1,8]naphthyridine]: the IC50 in experiment [1] is less than 1000 nM; in experiment [2], 1000 to 10000 nM.
The like results for `Nc1nccc2c(-c3cc(-c4ccccc4F)nc4ncccc34)ccc(OCCO)c12` [Compound 79, 2-{1-Amino-5-[2-(2-fluoro-phenyl)-[1,8]naphthyridin-4-yl]-isoquinolin-8-yloxy}-ethanol] were, in that order, less than 1000 nM and less than 1000 nM.
